Measurements published in patent publication US11396505B2, “Inhibitors of CaMKK2 and uses of same” (New York University, priority 2019, dated 2022).
Blank lines part the entries; values can stand above or below the compound they belong to.

What was measured:
CaMKK2 = CaMKK2 (Homo sapiens, UniProt Q96RR4); assay: CaMKK1/2 biochemical assay, 32P radiometric kinase assay (CaMKK2); details: for inhibition at 10 µM: 10 μM compound, read-out: CaMKK2 % inhibition @ concentrations shown, 10 μM; for inhibition at 0.5 µM: 0.5 μM compound, read-out: CaMKK2 % inhibition @ concentrations shown, 0.5 μM; for inhibition at 0.2 µM: 0.2 μM compound, read-out: CaMKK2 % inhibition @ concentrations shown, 0.2 μM
Protocol: (§1) The following is an example of a CaMKK1/2-biochemical assay. Compounds were tested for CaMKK1/2 inhibition using a ^32P radiometric kinase assay as follows: A freshly prepared kinase reaction buffer (20 mM Hepes (pH 7.5), 10 mM MgCl2, 1 mM EGTA, 0.02% Brij35, 0.02 mg/ml BSA, 0.1 mM Na3VO4, 2 mM DTT, 1% DMSO) was treated with Myelin Basic Protein (final concentration=20 μM), CaCl2) (final concentration=1.5 mM), Calmodulin (final concentration=0.96 μM) and either CaMKK2 (final reaction concentration=120 nM) or CaMKK1 (final reaction concentration=150 nM) and gently mixed. Compounds were added as aliquots from 10 mM DMSO stock solutions such that the final compound concentration in the assay was either 10 μM, 0.5 μM or 0.2 μM. This mixture was allowed to incubate for 20 minutes at room temperature. ^32P-ATP (specific activity 10 μCi/μL) was added and the mixture was allowed to incubate for 2 hours at room temperature. The reaction mixture was spotted onto P81 ion exchange paper. The kinase activity was detected by the filter binding method.

CaMKK1 = CaMKK1 (Homo sapiens, UniProt Q8N5S9); assay: CaMKK1/2 biochemical assay, 32P radiometric kinase assay (CaMKK1)
Protocol: as §1

Structure (SMILES): O=C(O)c1n[nH]c2ccc(N3CCOC3=O)cc12 [CL-628]
Biochemical Data CaMKK2, inh @ 0.5 μM (CaMKK2): 22% inh @ 0.5 μM | Biochemical Data CaMKK1, inh @ 0.5 μM (CaMKK1): <5% inh @ 0.5 μM

Structure (SMILES): CCOC(=O)c1n[nH]c2ccc(N3CCOC3=O)cc12 [CL-629]
Biochemical Data CaMKK2, inh @ 0.5 μM (CaMKK2): 20% inh @ 0.5 μM | Biochemical Data CaMKK1, inh @ 0.5 μM (CaMKK1): <5% inh @ 0.5 μM

Structure (SMILES): O=C1OCCN1c1ccc2[nH]nc(-c3cccc4ccccc34)c2c1 [CL-666]
Biochemical Data CaMKK2, inh @ 0.2 μM (CaMKK2): 15% inh @ 0.2 μM | Biochemical Data CaMKK1, inh @ 0.2 μM (CaMKK1): <5% inh @ 0.2 μM

Structure (SMILES): O=C1OCCN1c1ccc2[nH]nc(-c3ccc4cc[nH]c4c3)c2c1 [CL-669]
Biochemical Data CaMKK2, inh @ 0.2 μM (CaMKK2): 55% inh @ 0.2 μM | Biochemical Data CaMKK1, inh @ 0.2 μM (CaMKK1): <5% inh @ 0.2 μM

Structure (SMILES): O=C1OCCN1c1ccc2[nH]nc(-c3coc4ccccc34)c2c1 [Example 1, 3-(3-(Benzofuran-3-yl)-1H-indazol-5-yl)oxazolidin-2-one]
inhibition at 10 µM (CaMKK2): 72%

Structure (SMILES): O=C1OCCN1c1ccc2[nH]nc(-c3cc4ccccc4o3)c2c1 [Example 2, 3-(3-(Benzofuran-2-yl)-1H-indazol-5-yl)oxazolidin-2-one]
inhibition at 10 µM (CaMKK2): 98% | IC50 (CaMKK1): 164 nM

Structure (SMILES): O=C1OCCN1c1ccc2[nH]nc(-n3ccnc3)c2c1 [Example 5, 3-(3-(1H-imidazol-1-yl)-1H-indazol-5-yl)oxazolidin-2-one]
inhibition at 10 µM (CaMKK2): 29%

Structure (SMILES): O=C1OCCN1c1ccc2[nH]nc(-c3ccccc3)c2c1 [Example 6, 3-(3-phenyl-1H-indazol-5-yl)oxazolidin-2-one]
Biochemical Data CaMKK2, inh @ 0.5 μM (CaMKK2): 37% inh @ 0.5 μM | inhibition at 0.5 µM (CaMKK2): 37% | Biochemical Data CaMKK1, inh @ 0.5 μM (CaMKK1): <5% inh @ 0.5 μM

Structure (SMILES): O=C1OCCN1c1ccc2[nH]nc(-c3cccnc3)c2c1 [Example 7, 3-(3-(pyridin-3-yl)-1H-indazol-5-yl)oxazolidin-2-one]
Biochemical Data CaMKK2, inh @ 0.5 μM (CaMKK2): 29% inh @ 0.5 μM | inhibition at 0.5 µM (CaMKK2): 29% | Biochemical Data CaMKK1, inh @ 0.5 μM (CaMKK1): <5% inh @ 0.5 μM

Structure (SMILES): C=Cc1n[nH]c2ccc(N3CCOC3=O)cc12 [Example 8, 3-(3-vinyl-1H-indazol-5-yl)oxazolidin-2-one]
Biochemical Data CaMKK2, inh @ 0.5 μM (CaMKK2): 26% inh @ 0.5 μM | inhibition at 0.5 µM (CaMKK2): 26% | Biochemical Data CaMKK1, inh @ 0.5 μM (CaMKK1): 12% inh @ 0.5 μM

Structure (SMILES): O=C1OCCN1c1ccc2[nH]nc(/C=C/c3ccccc3)c2c1 [Example 9, (E)-3-(3-styryl-1H-indazol-5-yl)oxazolidin-2-one]
inhibition at 0.5 µM (CaMKK2): 89%

Structure (SMILES): O=C1OCCN1c1ccc2[nH]nc(/C=C/c3cccnc3)c2c1 [Example 10, (E)-3-(3-(2-(pyridin-3-yl)vinyl)-1H-indazol-5-yl)oxazolidin-2-one]
inhibition at 0.5 µM (CaMKK2): 72%

Structure (SMILES): O=C1OCCN1c1ccc2[nH]nc(/C=C/c3ccncc3)c2c1 [Example 11, (E)-3-(3-(2-(pyridin-4-yl)vinyl)-1H-indazol-5-yl)oxazolidin-2-one]
inhibition at 0.5 µM (CaMKK2): 80%

Structure (SMILES): O=C1OCCN1c1ccc2[nH]nc(C#Cc3ccccn3)c2c1 [Example 12, 3-(3-(pyridin-2-ylethynyl)-1H-indazol-5-yl)oxazolidin-2-one]
Biochemical Data CaMKK2, inh @ 0.5 μM (CaMKK2): 52% inh @ 0.5 μM | inhibition at 0.5 µM (CaMKK2): 52% | Biochemical Data CaMKK1, inh @ 0.5 μM (CaMKK1): 14% inh @ 0.5 μM

Structure (SMILES): O=C1OCCN1c1ccc2[nH]nc(-c3ccncc3)c2c1 [Example 13, 3-(3-(pyridin-4-yl)-1H-indazol-5-yl)oxazolidin-2-one]
Biochemical Data CaMKK2, inh @ 0.5 μM (CaMKK2): 33% inh @ 0.5 μM | inhibition at 0.5 µM (CaMKK2): 33% | Biochemical Data CaMKK1, inh @ 0.5 μM (CaMKK1): 7% inh @ 0.5 μM

Structure (SMILES): O=C1OCCN1c1ccc2[nH]nc(-c3cc4cccc(Cl)c4[nH]3)c2c1 [Example 14, 3-(3-(7-chloro-1H-indol-2-yl)-1H-indazol-5-yl)oxazolidin-2-one]
inhibition at 0.2 µM (CaMKK2): 71%

Structure (SMILES): O=C1OCCN1c1ccc2[nH]nc(-c3cc4ccc(Cl)cc4[nH]3)c2c1 [Example 15, 3-(3-(6-chloro-1H-indol-2-yl)-1H-indazol-5-yl)oxazolidin-2-one]
inhibition at 0.2 µM (CaMKK2): 85%

Structure (SMILES): O=C1OCCN1c1ccc2[nH]nc(-c3cc4c(Cl)cccc4[nH]3)c2c1 [Example 17, 3-(3-(4-chloro-1H-indol-2-yl)-1H-indazol-5-yl)oxazolidin-2-one]
inhibition at 0.2 µM (CaMKK2): 71%

Structure (SMILES): COc1cccc2cc(-c3n[nH]c4ccc(N5CCOC5=O)cc34)[nH]c12 [Example 18, 3-(3-(7-methoxy-1H-indol-2-yl)-1H-indazol-5-yl)oxazolidin-2-one]
inhibition at 0.2 µM (CaMKK2): 61%

Now from value to compound:

inhibition at 0.2 µM (CaMKK2): 87%
Structure (SMILES): COc1ccc2cc(-c3n[nH]c4ccc(N5CCOC5=O)cc34)[nH]c2c1 [Example 19, 3-(3-(6-methoxy-1H-indol-2-yl)-1H-indazol-5-yl)oxazolidin-2-one]

inhibition at 0.2 µM (CaMKK2): 84%
Structure (SMILES): COc1ccc2[nH]c(-c3n[nH]c4ccc(N5CCOC5=O)cc34)cc2c1 [Example 20, 3-(3-(5-methoxy-1H-indol-2-yl)-1H-indazol-5-yl)oxazolidin-2-one]

inhibition at 0.2 µM (CaMKK2): 84%
Structure (SMILES): COc1cccc2[nH]c(-c3n[nH]c4ccc(N5CCOC5=O)cc34)cc12 [Example 21, 3-(3-(4-methoxy-1H-indol-2-yl)-1H-indazol-5-yl)oxazolidin-2-one]

Biochemical Data CaMKK2, inh @ 0.2 μM (CaMKK2): 37% inh @ 0.2 μM | inhibition at 0.2 µM (CaMKK2): 37% | Biochemical Data CaMKK1, inh @ 0.2 μM (CaMKK1): <5% inh @ 0.2 μM
Structure (SMILES): O=C1OCCN1c1ccc2[nH]nc(-c3ccc[nH]3)c2c1 [Example 22, 3-(3-(1H-pyrrol-2-yl)-1H-indazol-5-yl)oxazolidin-2-one]

Biochemical Data CaMKK2, inh @ 0.2 μM (CaMKK2): 44% inh @ 0.2 μM | inhibition at 0.2 µM (CaMKK2): 44% | Biochemical Data CaMKK1, inh @ 0.2 μM (CaMKK1): <5% inh @ 0.2 μM
Structure (SMILES): O=C1OCCN1c1ccc2[nH]nc(-c3cccc(Cl)c3)c2c1 [Example 23, 3-(3-(3-chlorophenyl)-1H-indazol-5-yl)oxazolidin-2-one]

inhibition at 0.2 µM (CaMKK2): 67%
Structure (SMILES): O=C1OCCN1c1ccc2[nH]nc(-c3ccc4ccccc4c3)c2c1 [Example 25, 3-(3-(naphthalen-2-yl)-1H-indazol-5-yl)oxazolidin-2-one]

inhibition at 0.2 µM (CaMKK2): 59%
Structure (SMILES): O=C1OCCN1c1ccc2[nH]nc(-c3ccc(-c4ccccc4)cc3)c2c1 [Example 27, 3-(3-([1,1′-biphenyl]-4-yl)-1H-indazol-5-yl)oxazolidin-2-one]

inhibition at 0.2 µM (CaMKK2): 44%
Structure (SMILES): O=C1OCCN1c1ccc2[nH]nc(-c3ccc4cc[nH]c4c3)c2c1 [Example 28, 3-(3-(1H-indol-6-yl)-1H-indazol-5-yl)oxazolidin-2-one]

inhibition at 0.2 µM (CaMKK2): 63%
Structure (SMILES): CN(C)CCNC(=O)c1cccc(/C=C/c2n[nH]c3ccc(N4CCOC4=O)cc23)c1 [Example 29, (E)-N-(2-(dimethylamino)ethyl)-3-(2-(5-(2-oxooxazolidin-3-yl)-1H-indazol-3-yl)vinyl)benzamide]

inhibition at 0.2 µM (CaMKK2): 75%
Structure (SMILES): CN(C)CCNC(=O)c1ccc(/C=C/c2n[nH]c3ccc(N4CCOC4=O)cc23)cc1 [Example 30, (E)-N-(2-(dimethylamino)ethyl)-4-(2-(5-(2-oxooxazolidin-3-yl)-1H-indazol-3-yl)vinyl)benzamide]

inhibition at 0.2 µM (CaMKK2): 84%
Structure (SMILES): O=S1(=O)CCCN1c1ccc2[nH]nc(-c3cc4ccccc4[nH]3)c2c1 [Example 32, 2-(3-(1H-indol-2-yl)-1H-indazol-5-yl)isothiazolidine 1,1-dioxide]

inhibition at 0.2 µM (CaMKK2): 90%
Structure (SMILES): C[C@H]1COC(=O)N1c1ccc2[nH]nc(-c3cc4ccccc4[nH]3)c2c1 [Example 33, (S)-3-(3-(1H-indol-2-yl)-1H-indazol-5-yl)-4-methyloxazolidin-2-one]

inhibition at 0.2 µM (CaMKK2): 73%
Structure (SMILES): C[C@@H]1COC(=O)N1c1ccc2[nH]nc(-c3cc4ccccc4[nH]3)c2c1 [Example 34, (R)-3-(3-(1H-indol-2-yl)-1H-indazol-5-yl)-4-methyloxazolidin-2-one]

inhibition at 0.2 µM (CaMKK2): 68%
Structure (SMILES): O=C1OC[C@H](CO)N1c1ccc2[nH]nc(-c3cc4ccccc4[nH]3)c2c1 [Example 35, (S)-3-(3-(1H-indol-2-yl)-1H-indazol-5-yl)-4-(hydroxymethyl)oxazolidin-2-one]

inhibition at 0.2 µM (CaMKK2): 57%
Structure (SMILES): O=C1OC[C@@H](CO)N1c1ccc2[nH]nc(-c3cc4ccccc4[nH]3)c2c1 [Example 36, (R)-3-(3-(1H-indol-2-yl)-1H-indazol-5-yl)-4-(hydroxymethyl)oxazolidin-2-one]

inhibition at 0.2 µM (CaMKK2): 74%
Structure (SMILES): O=C1OC[C@H](c2ccccc2)N1c1ccc2[nH]nc(-c3cc4ccccc4[nH]3)c2c1 [Example 37, (S)-3-(3-(1H-indol-2-yl)-1H-indazol-5-yl)-4-phenyloxazolidin-2-one]

inhibition at 0.2 µM (CaMKK2): 50%
Structure (SMILES): O=C1OC[C@@H](c2ccccc2)N1c1ccc2[nH]nc(-c3cc4ccccc4[nH]3)c2c1 [Example 38, (R)-3-(3-(1H-indol-2-yl)-1H-indazol-5-yl)-4-phenyloxazolidin-2-one]

inhibition at 0.2 µM (CaMKK2): 72%
Structure (SMILES): CC(C)[C@H]1COC(=O)N1c1ccc2[nH]nc(-c3cc4ccccc4[nH]3)c2c1 [Example 39, (S)-3-(3-(1H-indol-2-yl)-1H-indazol-5-yl)-4-isopropyloxazolidin-2-one]

inhibition at 0.2 µM (CaMKK2): 56%
Structure (SMILES): O=C1CCCN1c1ccc2[nH]nc(-c3cc4ccccc4[nH]3)c2c1 [Example 42, 1-(3-(1H-indol-2-yl)-1H-indazol-5-yl)pyrrolidin-2-one]

inhibition at 0.2 µM (CaMKK2): 38%
Structure (SMILES): COC(=O)[C@@H]1CCC(=O)N1c1ccc2[nH]nc(-c3cc4ccccc4[nH]3)c2c1 [Example 43, methyl (S)-1-(3-(1H-indol-2-yl)-1H-indazol-5-yl)-5-oxopyrrolidine-2-carboxylate]

inhibition at 0.2 µM (CaMKK2): 78%
Structure (SMILES): O=C(O)[C@@H]1CCC(=O)N1c1ccc2[nH]nc(-c3cc4ccccc4[nH]3)c2c1 [Example 44, (S)-1-(3-(1H-indol-2-yl)-1H-indazol-5-yl)-5-oxopyrrolidine-2-carboxylic acid]
